{"source": "patent US8350084B2", "about": "“Alpha-(N-sulfonamido)acetamide compound as an inhibitor of beta amyloid peptide production” (priority 2007, dated 2013)", "key": {"[1]": {"system": "γ-secretase inhibitor binding sites in the brain", "test": "Gamma-secretase site occupancy in rat brain", "format": "in vivo", "conditions": "single dose 1 mg/kg, by 24 hours", "procedure": "(§1) Female Harlan Sprague-Dawley rats (˜200-250 g) were dosed daily by oral gavage with a dosing vehicle of 99% PEG-400, 1% Tween-80 at 4 mL/kg in the morning. […] Plasma was obtained after centrifugation. […] CSF samples were centrifuged to remove cells or debris prior to dilution at 1:2 in 4% BSA and frozen for subsequent analysis.\nBrain sections were cut coronally at a thickness of 20 μm on a cryostat and thaw-mounted onto Superfrost Plus slides. Sections were saved at the level of the rostral hippocampus, with 3 sections per slide at intervals of about 120 μm, and frozen at −20° C. until use. For occupancy studies, brain sections were warmed to room temperature, dried, incubated for 10 minutes in 50 mM HEPES buffer, pH 7.4, then transferred to the same buffer containing 1.5 nM [^3H]IN973 (Goldstein, M. E. et al., J. Pharmacol. Exp. Ther. (2007) 323:102-108) or [^3H] (R)-4-((N-(1-amino-4-methyl-1-oxopentan-2-yl)-4-chlorophenylsulfonamido)methyl)-N-(2-methoxyethyl)benzamide and incubated at room temperature for 10 minutes. To define nonspecific binding, adjacent sections were incubated in buffer containing [^3H]IN973 or [^3H] […] Optical densities (expressed as digital light units per square millimeter) over areas of interest were measured and expressed as a percent of vehicle control."}, "proximal duodenum": {"system": "proximal duodenum", "test": "Rat duodenum histopathology (GI toxicity)", "format": "in vivo", "conditions": "100 mg/kg/day once daily for 4 days", "procedure": "as §1\nFollowing euthanasia by CO2 asphyxiation, approximately 3 cm long sections of the proximal duodenum were removed from the abdomen, rinsed with ice cold Phosphate buffered saline and placed into 10% buffered formalin prior to sectioning. Tissue sections of the duodenum were embedded in liquid paraffin, mounted onto blocks, and cut into triplicate sagittal (cross-luminal) ring sections and stained using the Periodic acid Schiff's base method prior to microscopic evaluation. All animals survived until scheduled necropsy was performed."}, "[2]": {"conditions": "female, Sprague-Dawley, rat, in vivo", "protocol": "Animals were euthanized 12 or 24 hours after the third dose or 5 hours after the fourth dose."}, "mouse Notch1-ΔE": {"system": "mouse Notch1-ΔE", "conditions": "Notch IC50 / Aβ40 IC50, 95% CI=163-232", "protocol": "Since inhibition of Notch signaling causes undesired, mechanism-based side effects, a cellular assay for Notch1-ΔE signaling was used to counterscreen γ-secretase inhibitors.\nHela cells were maintained in DMEM (GibcoBRL) containing 10% FBS (GibcoBRL), Penicillin/Streptomycin (GibcoBRL) and 2 mM L-glutamine (GibcoBRL). Cells were transiently transfected using TransIT-HelaMONSTER (Mires) according to the manufacturer's directions. Hela cells (ATCC) were plated 16 hours before transfection at a density of 4×10^6 cells per T175 flask in Hela growth media (DMEM (high glucose with HEPES) with glutamine, penicillin, streptomycin and 10% fetal bovine serum). […] Cells were plated into 96 well black Clearview plates (Packard) at a volume of 200 μL/well (1×10^4 cells) and incubated at 37° C. for 1.5 hours to allow cells to adhere to the plates. Test compounds were initially diluted in a 96 well polypropylene plate in 100% DMSO. […] Diluted compound solutions (10 μL) were added to the cell plate yielding a final 0.1% DMSO concentration. Cell plates containing compound were incubated overnight at 37° C. […] The plate was incubated at room temperature for 10 minutes before black backing was attached to the bottom of the plate and the signal was read on a TopCount (Packard). […]"}, "brain Aβ40": {"system": "brain Aβ40", "test": "Rat brain Abeta40 assay (252-TSD ELISA)", "conditions": "for Terminal Brain Abeta 40 5 hr: 5 hr after fourth dose; for Terminal Brain Abeta 40 12 hr: 12 hr after third dose; for Terminal Brain Abeta 40 24 hr: 24 hr after third dose"}, "CYP3A4 mRNA": {"system": "CYP3A4 mRNA", "conditions": "human, 3 days, 20 μM", "protocol": "Fa2N-4 cells and MFE Support Media F were provided by XenoTech, LLC (Lenexa, Kans.).\nFa2N-4 cells were supplied on 12-well, collagen-coated plates at a seeding density of 0.67×10^6 cells per well. Upon the receipt of the cells, the media were changed and the cells maintained overnight in a humidified, CO2-supplied incubator. After this adaptation period, the cells were examined under a light microscope and a determination was made as to whether the cells were morphologically normal and suitable for use. During the treatment period, the cells were visually inspected on a daily basis; cellular morphology, confluency, and signs of toxicity due to the test article were documented as necessary. […] Fa2N-4 cells were exposed to the test articles for a total of 3 days. The culture medium was replaced daily with fresh medium containing the test articles. After a total of ˜72 hours of exposure, medium was aspirated and the cells washed once with warm phosphate buffered saline solution before adding the cell lysis buffer (Qiagen, Valencia, Calif.)."}, "[3]": {"molecular_target": "T1, human pregnane-X receptor (Homo sapiens, UniProt O75469)", "T1 construct": "expressed in transfected cells; host or cells: HepG2 cells (ATCC), transient transfection with Lipofectamine 2000", "T1 sequence (O75469 1-434)": "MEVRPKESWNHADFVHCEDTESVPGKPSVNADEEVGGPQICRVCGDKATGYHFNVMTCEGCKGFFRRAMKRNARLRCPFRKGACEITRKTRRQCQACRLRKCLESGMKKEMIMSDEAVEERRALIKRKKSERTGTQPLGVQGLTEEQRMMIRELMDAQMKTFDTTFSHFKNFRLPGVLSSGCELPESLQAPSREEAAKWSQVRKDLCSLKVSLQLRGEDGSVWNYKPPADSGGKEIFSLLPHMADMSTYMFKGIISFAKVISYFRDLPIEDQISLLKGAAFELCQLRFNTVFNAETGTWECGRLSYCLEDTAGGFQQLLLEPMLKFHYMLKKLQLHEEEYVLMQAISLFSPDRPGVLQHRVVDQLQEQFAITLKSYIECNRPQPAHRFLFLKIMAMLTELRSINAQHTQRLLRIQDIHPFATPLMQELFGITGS", "test": "PXR transactivation assay", "format": "cell-based", "conditions": "hPXR transactivation, transfected HepG2 cells", "source_text": "Pregnane X receptor (PXR) is a nuclear hormone receptor principally responsible for the induction of cytochrome P450 (CYP) 3A4, which plays a major role in metabolizing many clinically prescribed drugs. It is well known that the induction of CYP3A4 can cause either drug-drug interaction by increasing the metabolic clearance of co-administered CYP3A4 substrates (Bertilsson, G. et al., Proc. Nat. Acad. Sci. USA (1998) 95: 12208-12213; Lehmann, J. M. et al., J. Clin. Invest. (1998) 102: 1016-1023) or can cause loss of drug exposure due to autoinduction. Characterizing the induction potential of discovery or development drug candidates has become an important screen throughout the pharmaceutical industry. A PXR transactivation assay is used to assess the induction potential of CYP3A4, and a cytotoxicity assay of HepG2 cells is used to monitor the assay interference due to cytotoxicity.\nCell culture medium used is DMEM. Lipofectamine 2000, PBS, trypsin-EDTA (0.25%), and penicillin-streptomycin were purchased from GIBCO/Invitrogen (Carlsbad, Calif.). […]\nCells in each flask are washed with PBS and 4 mL of Trypsin-EDTA (0.25%) is added and incubated for one minute at room temperature. […] Cells are then counted and diluted in media to 3.0×10^5 cells/mL. […] After fifteen minutes, plates are read on a Viewlux (Perkin-Elmer) plate reader. […]"}}, "note": "“Also recorded” adds a separate entry of the source."}
{"smiles": "NC(=O)[C@@H](CCC(F)(F)F)N(Cc1ccc(-c2ncon2)cc1F)S(=O)(=O)c1ccc(Cl)cc1", "note": "[(2R)-2-[[(4-chlorophenyl)sulfonyl][[2-fluoro-4-(1,2,4-oxadiazol-3-yl)phenyl]methyl]amino]-5,5,5-trifluoropentanamide]", "values": [{"measurement": "brain γ-secretase site occupancy", "setting": "[1]", "result": "gradually returned to baseline values"}, {"measurement": "histological evaluation of duodenal tissue", "setting": "proximal duodenum", "result": "⅓ rats dosed with 100 mg/kg/day had mild lesions; also recorded: slight goblet cell metaplasia"}, {"measurement": "compound exposures after 3 doses relative to exposures after the initial dose", "setting": "[2]", "result": "≤ 2", "unit": "fold"}, {"measurement": "Notch/APP selectivity", "setting": "mouse Notch1-ΔE", "result": 193, "unit": "X"}, {"measurement": "Terminal Brain Abeta 40 5 hr", "setting": "brain Aβ40; Study No. 1, 3 mg/kg/day", "result": 39, "unit": "% Veh"}, {"measurement": "Terminal Brain Abeta 40 12 hr", "setting": "brain Aβ40; Study No. 1, 3 mg/kg/day", "result": 35, "unit": "% Veh"}, {"measurement": "Terminal Brain Abeta 40 24 hr", "setting": "brain Aβ40; Study No. 1, 3 mg/kg/day", "result": 92, "unit": "% Veh"}, {"measurement": "Terminal Brain Abeta 40 5 hr", "setting": "brain Aβ40; Study No. 1, 10 mg/kg/day", "result": 12, "unit": "% Veh"}, {"measurement": "Terminal Brain Abeta 40 12 hr", "setting": "brain Aβ40; Study No. 1, 10 mg/kg/day", "result": 9, "unit": "% Veh"}, {"measurement": "Terminal Brain Abeta 40 24 hr", "setting": "brain Aβ40; Study No. 1, 10 mg/kg/day", "result": 28, "unit": "% Veh"}, {"measurement": "Terminal Brain Abeta 40 5 hr", "setting": "brain Aβ40; Study No. 1, 30 mg/kg/day", "result": 8, "unit": "% Veh"}, {"measurement": "Terminal Brain Abeta 40 12 hr", "setting": "brain Aβ40; Study No. 1, 30 mg/kg/day", "result": 9, "unit": "% Veh"}, {"measurement": "Terminal Brain Abeta 40 24 hr", "setting": "brain Aβ40; Study No. 1, 30 mg/kg/day", "result": 13, "unit": "% Veh"}, {"measurement": "Terminal Brain Abeta 40 5 hr", "setting": "brain Aβ40; Study No. 2, 3 mg/kg/day", "result": 16, "unit": "% Veh"}, {"measurement": "Terminal Brain Abeta 40 12 hr", "setting": "brain Aβ40; Study No. 2, 3 mg/kg/day", "result": 34, "unit": "% Veh"}, {"measurement": "Terminal Brain Abeta 40 24 hr", "setting": "brain Aβ40; Study No. 2, 3 mg/kg/day", "result": 94, "unit": "% Veh"}, {"measurement": "Terminal Brain Abeta 40 5 hr", "setting": "brain Aβ40; Study No. 2, 10 mg/kg/day", "result": 6, "unit": "% Veh"}, {"measurement": "Terminal Brain Abeta 40 12 hr", "setting": "brain Aβ40; Study No. 2, 10 mg/kg/day", "result": 4, "unit": "% Veh"}, {"measurement": "Terminal Brain Abeta 40 24 hr", "setting": "brain Aβ40; Study No. 2, 10 mg/kg/day", "result": 23, "unit": "% Veh"}, {"measurement": "Terminal Brain Abeta 40 5 hr", "setting": "brain Aβ40; Study No. 2, 30 mg/kg/day", "result": 6, "unit": "% Veh"}, {"measurement": "Terminal Brain Abeta 40 12 hr", "setting": "brain Aβ40; Study No. 2, 30 mg/kg/day", "result": 4, "unit": "% Veh"}, {"measurement": "Terminal Brain Abeta 40 24 hr", "setting": "brain Aβ40; Study No. 2, 30 mg/kg/day", "result": 15, "unit": "% Veh"}, {"measurement": "Terminal Brain Abeta 40 5 hr", "setting": "brain Aβ40; Study No. 2, 100 mg/kg/day", "result": 3, "unit": "% Veh"}, {"measurement": "Terminal Brain Abeta 40 12 hr", "setting": "brain Aβ40; Study No. 2, 100 mg/kg/day", "result": 3, "unit": "% Veh"}, {"measurement": "Terminal Brain Abeta 40 24 hr", "setting": "brain Aβ40; Study No. 2, 100 mg/kg/day", "result": 7, "unit": "% Veh"}, {"measurement": "Day 7 5 hr Brain Aβ40", "setting": "brain Aβ40; Study No. 3, 30 mg/kg/day", "result": 13, "unit": "% Veh"}, {"measurement": "Day 7 5 hr Brain Aβ40", "setting": "brain Aβ40; Study No. 3, 300 mg/kg/day", "result": 13, "unit": "% Veh"}, {"measurement": "induction as % of the induction response caused by rifampicin", "setting": "CYP3A4 mRNA", "result": 22, "unit": "%"}, {"measurement": "EC20A (20% of the Rifampicin response at 10 μM)", "setting": "[3]", "result": 6.9, "unit": "µM"}, {"measurement": "EC60A (60% of the Rifampicin response at 10 μM)", "setting": "[3]", "result": "greater than 16.7 μM"}]}
